Experimental data taken from a melting point compilation (Tetko et al.; mined from patent text by program, amines drawn as free bases though some values may be those of a salt).

First: O=S1(=O)c2cccc3cccc(c23)N1CCN1CCC(CC2CCc3ccccc32)CC1 (centres undefined)
Second: O=C(CN1CCC(O)CC1)Nc1cccc2c1C(=O)c1c-2n[nH]c1-c1ccc(N2CCOCC2)cc1
The melting point of the first is lower: 127 °C for the first, 245 °C for the second.

Compared with `COc1ccc(N2CCN(c3c(C)c(C)c4c(c3C)C(O)(C(C)(C)C)C(C)(C)O4)CC2)cc1` (centres undefined), `COc1ccc(OC)c(C(=O)Nc2ccc(N3CCCC3)cc2C(C)=O)c1` is higher in melting point: 113 to 115 °C for the first, 137 to 140 °C for the second.

First: Clc1ccc(Cc2c(Cl)nc3ncnn3c2Cl)cc1
Second: S=c1n(-c2ccc(Cl)cc2Cl)nc2n1CCCC2
The melting point of the first is higher: 165 to 167 °C for the first, 118 to 120 °C for the second.

First: CC(=O)Nc1nc2c(Oc3cc(-c4ccc(C(F)(F)F)cc4NC(=O)C4CCCCN4CC4CC4)ncn3)cccc2s1 (centres undefined)
Second: CCc1nc(-c2cccc(C)c2)c(-c2ccnc(NCC3CCCCC3)c2)s1
The melting point of the first is higher: 212 to 214 °C for the first, 74 to 75 °C for the second.

First: N#Cc1c(N)nc2ccc([N+](=O)[O-])cc2c1NCc1cccs1
Second: CC(C)c1nc2ccccc2c(-c2ccc(F)cc2)c1CO
The melting point of the first is higher: 277 to 280 °C for the first, 132 to 134 °C for the second.

Compared with `CCCn1nc(OCc2ccc3ccccc3n2)cc1C(=O)OC`, `CCCCc1nc2cccc(C(=O)OC)c2n1Cc1ccc(-c2ccccc2N)cc1` is higher in melting point: 71 to 72 °C for the first, 97 to 99 °C for the second.

First: CC(=O)Oc1ccccc1C(=O)NC(Cl)C(Cl)(Cl)Cl (centres undefined)
Second: O=C(CCl)NC1CCc2ccccc2C1=O (centres undefined)
The melting point of the first is lower: 88 to 90 °C for the first, 118 to 122 °C for the second.

First: CC(Br)C(=O)c1cc(C(N)=O)cs1 (centres undefined)
Second: Cc1ccc(S(N)(=O)=O)cc1C(C)O (centres undefined)
The melting point of the first is lower: 116 to 117 °C for the first, 155 to 158 °C for the second.

First: CC(C)CN1C(=O)CC[C@H]1COC(c1ccccc1)(c1ccccc1)c1ccccc1
Second: O=C(C=P(c1ccccc1)(c1ccccc1)c1ccccc1)N1CCCCC1
The melting point of the first is lower: 91 to 93 °C for the first, 180 to 188 °C for the second.

First: CN(C/C=C\COCC(=O)O)c1cnc(-c2ccccc2)c(-c2ccccc2)n1
Second: NC(=O)Nc1ccc(CCOCc2ccccc2-c2ccccc2)cc1
The melting point of the first is lower: 128 to 130 °C for the first, 143 to 144 °C for the second.

Compared with `CC1(C)CC(N2C(=O)c3ccc(C(=O)O)cc3C2=O)CC(C)(C)N1`, `COc1c(-c2cc3c(s2)CCC(C)(C)C3O)ccc2c(=O)c(C(=O)O)cn(C3CC3)c12` (centres undefined) is lower in melting point: over 225 °C for the first, 93 to 94 °C for the second.

Compared with `C#CC1(O)CCC2C3CCC4=CC(=O)C=CC4(C)C3CCC21C` (centres undefined), `CCC1=NC(NC(=O)Nc2cccc(C)c2)C(=O)N(CC(=O)N2CC3CCC(CC3)C2)c2c(C)cccc21` (centres undefined) is lower in melting point: 218 to 219 °C for the first, 130 to 133 °C for the second.

First: O=C1c2ccccc2-c2c1c1ccccc1c(=O)n2CCCCCNS(=O)(=O)c1ccccc1
Second: CN1C(=O)C(Br)=C(c2cn(S(=O)(=O)c3ccccc3)c3ncccc23)C1=O
The melting point of the first is lower: 194 to 195 °C for the first, 198 °C for the second.

Compared with `O=C1CCCc2c(O)cccc2N1`, `Cc1cccc2c1CCCC2c1c[nH]cn1` (centres undefined) is lower in melting point: 244 to 245 °C for the first, 135 °C for the second.

First: CN1C(C(=O)Nc2nc3c(s2)CCCC3)=C(O)c2ccc3ccccc3c2S1(=O)=O
Second: Cc1nc(N2CCN(Cc3c(C)noc3-c3ccccc3)C2=O)sc1C(=O)NCc1cccnc1
The melting point of the first is higher: 255 to 257 °C for the first, 109 to 111 °C for the second.

Compared with `CC1CON2C(=O)c3cc(Cl)ccc3OC2C1` (centres undefined), `O=C1OCCC12Sc1cc(NO)ccc1C2=O` (centres undefined) is higher in melting point: 121 to 140 °C for the first, 184 to 186 °C for the second.

First: NC(=O)CC[C@H]1CN(c2ccc(C(=O)c3cnc4ccc(C(F)(F)F)cn34)cc2)C(=O)O1
Second: COc1cccc(CC(=O)O)c1OCCCc1cn(-c2ccc(C(F)(F)F)cn2)nc1-c1ccccc1
The melting point of the first is higher: 243 to 245 °C for the first, 134 to 135 °C for the second.

Compared with `O=C(O)c1ccc(OCCCCCCc2cccc(O)c2O)cc1O`, `CCCCCCCCOc1ccc(C(=O)OC)c(O)c1` is lower in melting point: 179 to 180 °C for the first, 46 to 47 °C for the second.

First: CNC(=O)N1CC(Oc2cccc(F)c2)C1
Second: CNC1=NN(C(=O)c2cccc(C(F)(F)F)c2)C(C)(C)S1
The melting point of the first is higher: 155 to 156 °C for the first, 111 to 115 °C for the second.

Compared with `COC(=O)c1c(C)c(-c2cccnc2)n2c1CSC2`, `COc1cc2c(cc1C(F)(F)F)N(C(=O)Nc1ccc(Sc3cccnc3)nc1)CC2` is higher in melting point: 91 °C for the first, 208 to 210 °C for the second.

First: CN(CCCCCC(=O)NO)C(=O)/C=C/C=C/c1ccccc1
Second: O=C(O)CCCCCCc1cn(-c2cccnc2)c2ccccc12
The melting point of the first is higher: 145 to 147 °C for the first, 120 to 122 °C for the second.

First: CCCCCCc1ccc(C=Cc2cc3cc4ccccc4cc3s2)cc1
Second: CCCCc1nc(C(F)(F)C(F)(F)F)c(CO)n1Cc1ccc(-c2ccccc2C(=O)O)cc1
The melting point of the first is higher: 300 to 302 °C for the first, 190 to 191 °C for the second.

`CC(C)(C)OC(=O)N1CCS(=O)(=O)C1` and `COc1cc(NC(=O)CCCCCN2CCN(C)CC2)c2nccc(C)c2c1` cannot be ordered by melting point: 106 to 107 °C for the first, 104 to 107 °C for the second.

First: Cc1cc(Nc2ccnc(Nc3ccc(S(=O)(=O)N(C)C4CCN(Cc5cnn(C)c5)CC4)cc3)n2)ccc1F
Second: Fc1ccc(-c2[nH]cc(CCCN3CCN(Cc4ccccc4)CC3)c2-c2ccncc2)cc1
The melting point of the first is lower: 125 to 150 °C for the first, 153 to 154 °C for the second.

Compared with `N#CC(C#N)=C1Sc2nc3cc(Cl)c([N+](=O)[O-])cc3nc2S1`, `CCC(CC)Cn1c(=O)c(=O)[nH]c2cc(Cl)c([N+](=O)[O-])cc21` is lower in melting point: 297 to 299 °C for the first, 232 to 233 °C for the second.

Compared with `CN1CCC(=C2c3ccccc3Oc3ccc(C(F)(F)F)cc32)CC1`, `CC1(C)COc2ccc(C(F)(F)F)cc2C(O)(c2ccccn2)C1` (centres undefined) is higher in melting point: 82 to 83 °C for the first, 116 °C for the second.

First: CC(=O)c1ccc(N2CCN(Cc3cn4cc(Cl)ccc4n3)CC2)cc1
Second: O=C(Nc1ccc(N2CCSCC2)c(F)c1)OCc1ccccc1
The melting point of the first is higher: 186 to 187 °C for the first, 142 °C for the second.

Compared with `Cn1ccc2c1CC(C(=O)OCc1ccccc1)C1C(=O)NC(=O)C21` (centres undefined), `Cn1c(C(=O)O)c(Br)c2cc(OCc3ccccc3)ccc21` is higher in melting point: 189 to 193 °C for the first, 210 °C for the second.

Compared with `CC(=O)c1cccc(Oc2ncccc2C(=O)NCC2CCC(C(C)O)CC2)c1` (centres undefined), `Cc1nc(-n2ccc(O)cc2=O)sc1C(=O)NCC1CC1` is higher in melting point: 101 to 103 °C for the first, 240 to 242 °C for the second.

Compared with `COC(=O)Cc1ccc(O)c(Cl)c1`, `O=[N+]([O-])c1cccc(CO)c1Cl` is higher in melting point: 35 to 36 °C for the first, 69 to 70 °C for the second.

First: O[C@@H](CNCCOc1ccc2sc(-c3ncon3)cc2c1)COc1ccccc1
Second: CCOC(=O)c1ccc(OCCCN2C(=O)c3ccccc3C2=O)cc1
The melting point of the first is lower: 101 to 102 °C for the first, 106 to 108 °C for the second.

First: CCCCCCCCNc1ccc(NCCCCCCCC)c2c1C(=O)c1ccccc1C2=O
Second: Cc1noc(NS(=O)(=O)c2ccc(NCCc3ccccc3)cc2-c2ccc(CC(C)C)cc2)c1C
The melting point of the first is higher: 72 to 74 °C for the first, 68 to 71 °C for the second.

Compared with `O=C(CC(=O)Nc1ccccc1Cl)CS(=O)(=O)C(c1ccc(Cl)cc1)c1ccc(Cl)cc1`, `COc1ccc(S(=O)(=O)Nc2ccccc2NC(=O)c2ccccc2C)cc1` is higher in melting point: 92 to 95 °C for the first, 129 to 130 °C for the second.

Compared with `CC(C)c1nc(CCOC(=O)OCCc2nc(C(C)C)c(Sc3cc(Cl)cc(Cl)c3)n2C)n(C)c1Sc1cc(Cl)cc(Cl)c1`, `Cn1cncc1C(O)(c1ccc(I)cc1)c1ccc2c(c1)c(-c1cccc(Cl)c1)cc(=O)n2C` (centres undefined) is higher in melting point: 157 to 159 °C for the first, 197 °C for the second.

First: O=C(O)C1CSC(c2ccccc2O)N1 (centres undefined)
Second: O=C(O)CN1C(=O)C(=Cc2ccccc2C(=O)O)SC1=S
The melting point of the first is lower: 169 °C for the first, over 300 °C for the second.

Compared with `C=CC(=Cc1ccccc1)N(C)C`, `COc1cc(C=CC(=O)c2ccccc2O)cc(OC)c1` is higher in melting point: 72 to 74 °C for the first, 110 to 111 °C for the second.

`CC(=O)c1ccc(C=Cc2ccc(C(C)=O)s2)s1` and `COc1ccc2nc3sc(C(=O)O)cn3c(=O)c2c1` cannot be ordered by melting point: 248 °C for the first, 247 to 248 °C for the second.

First: CNC(=O)c1cccc(CNc2ccccc2C(=O)Nc2cccc(C(F)(F)F)c2)c1
Second: O=C(/C=C/c1ccc(C(F)(F)F)cc1-c1cccnc1)Nc1ccc2[nH]ccc2c1
The melting point of the first is lower: 166 to 167 °C for the first, 196 to 197 °C for the second.

First: CNC(=O)c1cc(N)cc(C(F)(F)F)c1
Second: NCC1Cc2cc(C(F)(F)F)cc(-c3ccc(C(F)(F)F)cc3)c2O1 (centres undefined)
The melting point of the first is lower: 113 to 115 °C for the first, over 250 °C for the second.

First: O=[N+]([O-])C=C1SCCN1Cc1cccnc1
Second: O=C1NCCN1Cc1ccncc1
The melting point of the first is lower: 96 to 100 °C for the first, 153 to 155 °C for the second.

First: COCOCc1nc(-c2ccccc2)oc1COc1ccc(OCc2nc(-c3ccccc3)oc2C)cc1
Second: Cn1c(COc2ccc(CC3SC(=O)NC3=O)cc2)nc2ccc(Oc3ccc(CCNC(=O)Nc4ccc(F)cc4F)cc3)cc21 (centres undefined)
The melting point of the first is lower: 74 to 75 °C for the first, 161 to 164 °C for the second.

Compared with `CCON1C(=O)c2ccccc2C1=O`, `COc1ccccc1C1(Cl)C(=O)Nc2cc(C(F)(F)F)c(Cl)cc21` (centres undefined) is higher in melting point: 95 to 97 °C for the first, 230 to 231 °C for the second.

First: C=CCNc1nc(Cl)nc(N(CCCCCCN(c2nc(Cl)nc(NCC=C)n2)C2CC(C)(C)NC(C)(C)C2)C2CC(C)(C)NC(C)(C)C2)n1
Second: C=CCON(CCCCCCCCCCCCCCCCCC)CCCCCCCCCCCCCCCCCC
The melting point of the first is higher: 210 to 211 °C for the first, 60 to 62 °C for the second.

First: Oc1ccc(Oc2ccc(I)cc2)cc1
Second: COc1ccc(C(Sc2cc(Oc3ccccc3)ccc2N)C(O)C(=O)O)cc1Cl (centres undefined)
The melting point of the first is lower: 119 to 121 °C for the first, 168 to 170 °C for the second.

First: COC(=O)c1cc(Cl)cc2c1OC(C)C(=O)N2C (centres undefined)
Second: COc1ccc2c(c1)Sc1cc(OC)c(Cl)cc1C(=O)C2
The melting point of the first is lower: 128 to 130 °C for the first, 186 to 188 °C for the second.

Compared with `CC(C)(C)c1nc(-c2ccc(F)cc2)c(-c2ccc(S(C)(=O)=O)cc2)s1`, `COc1ccc(C=C2CS(=O)(=O)CC(=Cc3ccc(OC)cc3)C2(O)NC2=NCCS2)cc1` (centres undefined) is higher in melting point: 144 to 145 °C for the first, 194 to 196 °C for the second.

First: CC1(C)C(C(=O)O)C1C(C(Cl)(Br)C(F)(F)F)S(C)(=O)=O (centres undefined)
Second: COc1cc(C)c(C(=O)c2c(C(F)(F)F)ccnc2Cl)c(OC)c1OC
The melting point of the first is higher: 138 °C for the first, 59 to 62 °C for the second.

Compared with `CC(C)=NNC(=O)NCCCN(C)CCCNC(=O)NN=C(C)C`, `CC(=O)OCCc1cc2c(s1)SCCC1CC(=O)NN=C21` (centres undefined) is lower in melting point: 113 to 114 °C for the first, 106 to 108 °C for the second.

First: O=c1[nH]c2[nH]c3ccc(Cl)cc3c2c2ccccc12
Second: Cc1ccccc1-c1cnc2c(C(F)(F)F)cccc2c1-c1cccc(N)c1
The melting point of the first is higher: over 300 °C for the first, 148 to 151 °C for the second.

Molecule `O=C(CCl)Nc1ccc2ncnc(Nc3cccc(Br)c3)c2c1` has a melting point of over 300 °C.
